Laboratory results taken from patent publication EP2396020B1, “NOVEL ANTIMICROBIAL PEPTIDES” (Institute Of Organic Chemistry And Biochemistry As CR, …, priority 2009, dated 2010).
Peptide text beside a SMILES is read from it.

Experiments:
Escherichia coli = details: LB broth, 37°C, 20 h
Experimental: (§2) Antimicrobial activity was determined as a quantitative minimum inhibitory concentration (MIC) by observing bacterial growth in the presence of different concentrations of tested peptides. Mid-exponential phase bacteria were added to the solutions of the tested antimicrobial peptide at different concentrations (0.5 to 100 µM) in LB broth in multi-well plates. The plates were incubated at 37°C for 20 h while being continuously shaken in a Bioscreen C instrument (Finland). The absorbance was measured at 540 nm every 15 min and each peptide was tested at least 3 times in duplicate. In the experiments was routinely used 1.2 10^3 - 7.5 10^3 CFU of bacteria. Tetracycline in a concentration range of 0.1 - 50 µM was tested as a standard.

Staphylococcus aureus = details: LB broth, 37°C, 20 h
Experimental: as §2

Bacillus subtilis = details: LB broth, 37°C, 20 h
Experimental: as §2

Pseudomonnas aeruginosa = details: LB broth, 37°C, 20 h
Experimental: as §2

[1] = Determination of hemolytic activity; type: cell-based; details: rat red blood cells (5% suspension), 1 h at 37°C, physiological solution, read-out: hemolytic activity LC50
Experimental: (§1) The peptides in the concentration (1-200 µM) were incubated with rat red blood cells (5%) for 1 h at 37°C in a physiological solution at a final volume of 0.2 ml The samples were then centrifuged for 5 min at 250 g, and the absorbance of the supernatant was determined at 540 nm. Supernatants of red blood cells suspended in physiological solution and in 0.2% TRITON X100 in physiological solution served as controls for zero hemolysis (blank) and 100% hemolysis, respectively.

rat red blood cells = experiment: Determination of hemolytic activity; type: cell-based; details: rat red blood cells (5%), 1 h at 37°C, physiological solution
Experimental: as §1

SMILES: CC[C@H](C)[C@H](NC(=O)[C@H](CCCCN)NC(=O)[C@H](CO)NC(=O)[C@H](Cc1c[nH]c2ccccc12)NC(=O)[C@H](CCSC)NC(=O)CN)C(=O)N[C@@H](CC(C)C)C(=O)NCC(=O)N[C@@H](Cc1c[nH]cn1)C(=O)N[C@@H](CC(C)C)C(=O)N[C@@H](CCCCN)C(=O)N[C@@H](CCCNC(=N)N)C(N)=O [(1-A/2), H-Gly-Met-Trp-Ser-Lys-Ile-Leu-Gly-His-Leu-Lys-Arg-NH2] (H-GMWSKILGHLKR-NH2)
- antimicrobial activity MIC E. c. (Escherichia coli): 28 µM
- antimicrobial activity MIC S.a. (Staphylococcus aureus): 100 µM
- antimicrobial activity MIC B.s. (Bacillus subtilis): 2,2 µM
- antimicrobial activity MIC P.a. (Pseudomonnas aeruginosa): 90 µM
- HC50 at 1 h [1]: > 200 µM

SMILES: CC[C@H](C)[C@H](NC(=O)[C@H](Cc1c[nH]cn1)NC(=O)[C@H](CCCCN)NC(=O)[C@H](CC(C)C)NC(=O)[C@H](CC(C)C)NC(=O)[C@H](CCCCN)NC(=O)[C@H](CCSC)NC(=O)[C@H](Cc1c[nH]c2ccccc12)NC(=O)[C@H](CCCCN)NC(=O)CN)C(=O)N[C@@H](CC(C)C)C(=O)N[C@@H](CCCCN)C(N)=O [(2-A/2), H-Gly-Lys-Trp-Met-Lys-Leu-Leu-Lys-His-Ile-Leu-Lys-NH2] (H-GKWMKLLKHILK-NH2)
- antimicrobial activity MIC E. c. (Escherichia coli): 2,5 µM
- antimicrobial activity MIC S.a. (Staphylococcus aureus): 4,5 µM
- antimicrobial activity MIC B.s. (Bacillus subtilis): 0,8 µM
- antimicrobial activity MIC P.a. (Pseudomonnas aeruginosa): 10,7 µM
- hemolytic activity LC50 (rat red blood cells): 87,5 µM

SMILES: CC[C@H](C)[C@H](NC(=O)[C@H](Cc1c[nH]cn1)NC(=O)[C@H](CCCCN)NC(=O)[C@H](CC(C)C)NC(=O)[C@H](CC(C)C)NC(=O)[C@H](CO)NC(=O)[C@H](CCSC)NC(=O)[C@H](Cc1c[nH]c2ccccc12)NC(=O)[C@H](CCCCN)NC(=O)CN)C(=O)N[C@@H](CC(C)C)C(=O)N[C@@H](CCCCN)C(N)=O [(2), H-Gly-Lys-Trp-Met-Ser-Leu-Leu-Lys-His-Ile-Leu-Lys-NH2] (H-GKWMSLLKHILK-NH2)
- antimicrobial activity MIC E. c. (Escherichia coli): 2,2 µM
- antimicrobial activity MIC S.a. (Staphylococcus aureus): 7,5 µM
- antimicrobial activity MIC B.s. (Bacillus subtilis): 0,8 µM
- antimicrobial activity MIC P.a. (Pseudomonnas aeruginosa): 33 µM
- HC50 at 1 h [1]: 80 µM

SMILES: CC[C@H](C)[C@H](NC(=O)[C@H](CCCCN)NC(=O)[C@H](CCCCN)NC(=O)[C@H](CC(C)C)NC(=O)[C@H](CC(C)C)NC(=O)[C@H](CO)NC(=O)[C@H](CCSC)NC(=O)[C@H](Cc1c[nH]c2ccccc12)NC(=O)[C@H](CCCCN)NC(=O)CN)C(=O)N[C@@H](CC(C)C)C(=O)N[C@@H](CCCCN)C(N)=O [(2-A/3), H-Gly-Lys-Trp-Met-Ser-Leu-Leu-Lys-Lys-Ile-Leu-Lys-NH2] (H-GKWMSLLKKILK-NH2)
- antimicrobial activity MIC E. c. (Escherichia coli): 2,7 µM
- antimicrobial activity MIC S.a. (Staphylococcus aureus): 6,3 µM
- antimicrobial activity MIC B.s. (Bacillus subtilis): 1,2 µM
- antimicrobial activity MIC P.a. (Pseudomonnas aeruginosa): 13,8 µM
- HC50 at 1 h [1]: 126 µM

SMILES: CC[C@H](C)[C@H](NC(=O)[C@H](Cc1c[nH]cn1)NC(=O)[C@H](CCCCN)NC(=O)[C@H](CC(C)C)NC(=O)[C@H](CC(C)C)NC(=O)[C@H](CO)NC(=O)[C@H](CCCCN)NC(=O)[C@H](Cc1c[nH]c2ccccc12)NC(=O)[C@H](CCCCN)NC(=O)CN)C(=O)N[C@@H](CC(C)C)C(=O)N[C@@H](CCCCN)C(N)=O [(2-A/1), H-Gly-Lys-Trp-Lys-Ser-Leu-Leu-Lys-His-Ile-Leu-Lys-NH2] (H-GKWKSLLKHILK-NH2)
- antimicrobial activity MIC E. c. (Escherichia coli): 3 µM
- antimicrobial activity MIC S.a. (Staphylococcus aureus): 25 µM
- antimicrobial activity MIC B.s. (Bacillus subtilis): 1,5 µM
- antimicrobial activity MIC P.a. (Pseudomonnas aeruginosa): 12,5 µM
- HC50 at 1 h [1]: 95 µM

SMILES: CC[C@H](C)[C@H](NC(=O)[C@H](CC(C)C)NC(=O)[C@H](Cc1c[nH]cn1)NC(=O)CNC(=O)[C@H](CC(C)C)NC(=O)[C@@H](NC(=O)[C@H](CCCCN)NC(=O)[C@H](CO)NC(=O)[C@H](Cc1c[nH]c2ccccc12)NC(=O)[C@H](CCSC)NC(=O)CN)[C@@H](C)CC)C(=O)N[C@@H](CCCCN)C(N)=O [(1-A/3), H-Gly-Met-Trp-Ser-Lys-Ile-Leu-Gly-His-Leu-Ile-Lys-NH2] (H-GMWSKILGHLIK-NH2)
- antimicrobial activity MIC E. c. (Escherichia coli): 6.0 µM
- antimicrobial activity MIC S.a. (Staphylococcus aureus): 12,5 µM
- antimicrobial activity MIC B.s. (Bacillus subtilis): 0,75 µM
- antimicrobial activity MIC P.a. (Pseudomonnas aeruginosa): 50 µM
- HC50 at 1 h [1]: 111 µM

SMILES: CC[C@H](C)[C@H](NC(=O)[C@H](CC(C)C)NC(=O)[C@H](Cc1c[nH]cn1)NC(=O)CNC(=O)[C@H](CC(C)C)NC(=O)[C@@H](NC(=O)[C@H](CCCCN)NC(=O)[C@H](CO)NC(=O)[C@H](Cc1c[nH]c2ccccc12)NC(=O)[C@H](CCSC)NC(=O)CN)[C@@H](C)CC)C(=O)N[C@@H](CCCNC(=N)N)C(N)=O [(1), H-Gly-Met-Trp-Ser-Lys-Ile-Leu-Gly-His-Leu-Ile-Arg-NH2] (H-GMWSKILGHLIR-NH2)
- antimicrobial activity MIC E. c. (Escherichia coli): 3,8 µM
- antimicrobial activity MIC S.a. (Staphylococcus aureus): 7,4 µM
- antimicrobial activity MIC B.s. (Bacillus subtilis): 0,7 µM
- antimicrobial activity MIC P.a. (Pseudomonnas aeruginosa): 45 µM
- HC50 at 1 h [1]: 80 µM

SMILES: CC[C@H](C)[C@H](NC(=O)[C@H](CC(C)C)NC(=O)[C@H](Cc1c[nH]cn1)NC(=O)CNC(=O)[C@H](CC(C)C)NC(=O)[C@@H](NC(=O)[C@H](CCCCN)NC(=O)[C@H](CCCCN)NC(=O)[C@H](Cc1c[nH]c2ccccc12)NC(=O)[C@H](CCSC)NC(=O)CN)[C@@H](C)CC)C(=O)N[C@@H](CCCNC(=N)N)C(N)=O [(1-A/1), H-Gly-Met-Trp-Lys-Lys-Ile-Leu-Gly-His-Leu-Ile-Arg-NH2] (H-GMWKKILGHLIR-NH2)
- antimicrobial activity MIC E. c. (Escherichia coli): 1,8 µM
- antimicrobial activity MIC S.a. (Staphylococcus aureus): 6,0 µM
- antimicrobial activity MIC B.s. (Bacillus subtilis): 1,1 µM
- antimicrobial activity MIC P.a. (Pseudomonnas aeruginosa): 12,5 µM
- HC50 at 1 h [1]: 93 µM

SMILES: CC[C@H](C)[C@H](NC(=O)[C@H](CC(C)C)NC(=O)[C@H](CCCCN)NC(=O)CNC(=O)[C@H](CC(C)C)NC(=O)[C@@H](NC(=O)[C@H](CCCCN)NC(=O)[C@H](CCCCN)NC(=O)[C@H](Cc1c[nH]c2ccccc12)NC(=O)[C@H](CCCCN)NC(=O)CN)[C@@H](C)CC)C(=O)N[C@@H](CCCNC(=N)N)C(N)=O [(1-A/4), H-Gly-Lys-Trp-Lys-Lys-Ile-Leu-Gly-Lys-Leu-Ile-Arg-NH2] (H-GKWKKILGKLIR-NH2)
- antimicrobial activity MIC E. c. (Escherichia coli): 1,8 µM
- antimicrobial activity MIC S.a. (Staphylococcus aureus): 60,0 µM
- antimicrobial activity MIC B.s. (Bacillus subtilis): 1,3 µM
- antimicrobial activity MIC P.a. (Pseudomonnas aeruginosa): 14,2 µM
- HC50 at 1 h [1]: > 200 µM
